Source: patent US20110098325A1, “PYRIDINE BENZAMIDES AND PYRAZINE BENZAMIDES USED AS PKD INHIBITORS” (CANCER RESEARCH TECHNOLOGY LIMITED, priority 2006, published 2011)
pIC50: −log10 of the molar value.

Molecular target: T1, human full length PKD2 (Homo sapiens, UniProt Q9BZL6)
T1 construct: human full length PKD2 at ˜100 μg/mL was purchased from Upstate Ltd; purchased Upstate Ltd 14-506
T1 sequence (Q9BZL6 1-878): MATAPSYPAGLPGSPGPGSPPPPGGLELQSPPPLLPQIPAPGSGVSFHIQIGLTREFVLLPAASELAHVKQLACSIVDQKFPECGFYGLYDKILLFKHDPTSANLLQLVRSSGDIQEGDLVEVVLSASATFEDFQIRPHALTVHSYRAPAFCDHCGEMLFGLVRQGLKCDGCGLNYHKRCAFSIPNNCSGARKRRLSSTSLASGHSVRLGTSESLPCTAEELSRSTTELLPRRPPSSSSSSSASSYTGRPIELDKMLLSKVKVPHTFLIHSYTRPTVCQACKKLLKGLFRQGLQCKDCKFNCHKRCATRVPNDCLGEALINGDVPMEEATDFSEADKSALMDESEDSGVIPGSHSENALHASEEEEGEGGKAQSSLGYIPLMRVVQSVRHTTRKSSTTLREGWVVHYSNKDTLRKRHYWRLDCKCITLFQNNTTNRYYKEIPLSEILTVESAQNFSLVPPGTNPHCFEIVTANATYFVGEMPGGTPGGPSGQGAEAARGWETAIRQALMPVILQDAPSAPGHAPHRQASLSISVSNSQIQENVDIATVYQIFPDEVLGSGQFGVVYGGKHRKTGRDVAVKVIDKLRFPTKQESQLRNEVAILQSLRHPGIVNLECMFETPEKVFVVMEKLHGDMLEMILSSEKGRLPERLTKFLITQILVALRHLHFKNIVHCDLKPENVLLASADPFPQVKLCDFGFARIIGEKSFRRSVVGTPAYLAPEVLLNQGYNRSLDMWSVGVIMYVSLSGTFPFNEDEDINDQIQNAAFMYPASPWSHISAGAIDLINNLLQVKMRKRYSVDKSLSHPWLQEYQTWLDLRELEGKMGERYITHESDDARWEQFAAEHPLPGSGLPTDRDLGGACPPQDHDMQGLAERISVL
Test: PKD2 (Human Full Length) Enzyme Activity Assay (IMAP fluorescence polarisation)
Assay type: biochemical
Conditions: stands directly after the PKD2 data (b743-b745); read-out: IC50, printed as PKD1 (Human Full Length) Enzyme Activity Assay
Method: Kinase Assay Reaction Buffer: This consisted of 0.22 μM filtered 25 mM HEPES and 10 mM MgCl2 pH 7.5.
Kinase: human full length PKD2 at ˜100 μg/mL was purchased from Upstate Ltd (Product code 14-506), and obtained from aliquots stored at −70° C. It was prepared with a final concentration of 0.1 μg/mL by diluting 1:300 in Reaction Buffer (30 μL per 9 mL-5 mL per plate with an additional 4 mL dead volume) and vortexing prior to use. It is necessary to check this concentration regularly in case of enzyme degradation.
Substrate: Fluorescein labelled glycogen synthase-derived peptide (FI)-KKLNRTLSVA (also known as MAPKAP K2 substrate) was obtained from Molecular Devices (Product code R7127). […]
5 μL Kinase/Substrate in Reaction Buffer was added to ‘test’ and all ‘control’ wells of a Corning black low binding 384 well (90 μL volume) microplate to give 0.1 μg/mL and 2 μM reaction concentration respectively. […] The fluorescence polarisation of the peptide substrate was measured using an analyst (Molecular devices) microplate reader with a single read at Ex485 Em535 (Analyst settings: Z Height 5 mm, G Factor 0.95, Reads/well 1, Integration 100000 μs, Gain Sensitivity 2).
Percentage inhibition was calculated based on activity of the test sample minus the average values in the blank wells relative to the average values measured in control wells minus the average values in the blank wells. […]

Row | pIC50 | SMILES
1 | 6.38 | COc1cc(-c2cncc(-c3cccc(C(=O)NCCN(C)C)c3)n2)ccc1O [X-007, N-(2-Dimethylamino-ethyl)-3-[6-(4-hydroxy-3-methoxy-phenyl)-pyrazin-2-yl]-benzamide]
2 | 7.49 | COc1cc(-c2cc(-c3cccc(C(=O)NCCN(C)C)c3)cnc2N)ccc1O [Y-059, 3-[6-Amino-5-(4-hydroxy-3-methoxy-phenyl)-pyridin-3-yl]-N-(2-dimethylamino-ethyl)-benzamide]
